Assay results as given in patent US6376200B1, “Kainate-binding, human CNS receptors of the EAA4 family” (priority 1992, dated 2002).
Read-outs that look alike come from different tables or passages of the source.

Key:
[1] = target: T1, human EAA4a receptor (Homo sapiens, UniProt Q13002); type: cell-based; design: transported to the cell surface in mature form, lacking the signal peptide and consisting of 877 amino acids; expressed in transfected cells; host or cells: Xenopus oocytes (stage V or VI), nuclear injection of pcDNAI/humEAA4a DNA; settings: for oocyte response to agonist: tested at -60, -80 and -100 mV
T1 sequence (Q13002 32-908): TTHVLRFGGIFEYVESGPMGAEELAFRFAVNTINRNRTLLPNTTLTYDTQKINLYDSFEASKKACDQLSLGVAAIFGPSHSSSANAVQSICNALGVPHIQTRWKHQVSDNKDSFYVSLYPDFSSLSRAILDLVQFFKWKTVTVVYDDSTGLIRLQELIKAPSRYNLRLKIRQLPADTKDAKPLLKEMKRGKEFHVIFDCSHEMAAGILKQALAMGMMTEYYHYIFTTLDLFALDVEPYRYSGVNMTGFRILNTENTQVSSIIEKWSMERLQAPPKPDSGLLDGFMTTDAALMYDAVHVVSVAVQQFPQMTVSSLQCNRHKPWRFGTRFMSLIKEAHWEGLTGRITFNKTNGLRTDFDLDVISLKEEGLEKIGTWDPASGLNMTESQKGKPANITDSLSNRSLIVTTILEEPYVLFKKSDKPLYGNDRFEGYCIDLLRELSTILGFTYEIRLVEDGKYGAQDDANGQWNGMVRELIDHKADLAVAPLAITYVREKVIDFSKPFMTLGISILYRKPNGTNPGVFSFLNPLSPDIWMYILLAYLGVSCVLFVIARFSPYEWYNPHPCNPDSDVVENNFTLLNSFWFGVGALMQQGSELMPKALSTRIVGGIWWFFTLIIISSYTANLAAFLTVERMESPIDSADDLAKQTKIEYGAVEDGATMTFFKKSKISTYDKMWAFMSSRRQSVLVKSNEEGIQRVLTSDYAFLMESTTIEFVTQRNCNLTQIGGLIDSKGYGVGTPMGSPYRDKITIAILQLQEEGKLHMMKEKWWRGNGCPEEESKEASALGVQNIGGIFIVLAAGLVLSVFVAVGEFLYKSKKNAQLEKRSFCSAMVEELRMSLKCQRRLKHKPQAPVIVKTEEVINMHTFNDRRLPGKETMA
Experimental: Xenopus oocytes (stage V or VI) were harvested and the nucleus of the oocytes was injected with 5 ng of pcDNAI/humEAA4a DNA.

[2] = target: T1, human EAA4a receptor; settings: COS cell membranes
Experimental: Transfected cells in the frozen state were resuspended in ice-cold distilled water using a hand homogenizer and centrifuged for 20 miutes at 50,000 g. The supernatant was discarded and the membrane pellet stored frozen at −70° C.
Proteins were determined using the Pierce Reagent with BSA as standard.
Binding assays were then performed, using an amount of COS-derived membrane equivalent to 25-100 ug as judged by protein determination and selected radiolabelled ligand. […] Samples were incubated on ice for 60 minutes, and bound and free ligand were then separated by rapid filtration using a PHD cell harvester and GF/B filters pre-soaked in ice-cold 0.3% polyethyleneimine. Filters were washed twice in 4 ml of the cold incubation buffer, then placed in scintillation vials with 5 ml of Beckman Ready-Protein Plus scintillation cocktail for counting.
Samples were incubated on ice for 60 minutes in plastic minivials, and bound and free ligand were separated by centrifugation for 30 minutes at 50,000 g. Pellets were washed twice in 4 ml of the cold incubation buffer, then 5 ml of Beckman Ready-Protein Plus scintillation cocktail was added, for counting.

SMILES: O=C1N=c2cc([N+](=O)[O-])c([N+](=O)[O-])cc2=NC1=O [DNQX, 6,7-dinitroquinoxaline-2,3-dione]
- effect on the dose/response curve for L-glutamate ([1]; DNQX 2×10^-6M, FIG. 10): parallel shift of the dose/response curve for L-glutamate to the right
- effect on the glutamate response ([1]; oocytes, FIG. 8): blocked the glutamate response

SMILES: CN[C@H](CC(=O)O)C(=O)O [NMDA, N-methyl-D-aspartate]
- oocyte response to agonist ([1]; 10^-4M): did not respond
- oocyte response to agonist ([1]; NMDA 10^-4M with glycine 10^-6M): did not respond
- binding to EAA4a receptor [2]: little or no demonstrable binding
